Results as given in US11242549B2, “Bio-refinery waste utilization for enzyme production using novel penicillium funiculosum MRJ-16 fungal strain” (INDIAN OIL CORPORATION LIMITED, priority 2019, dated 2022).
Read-outs that look alike come from different tables or passages of the source.

Tested on: Penicillium funiculosum MRJ-16 mutant strain
Format: cell-based
Details: 120 hours of fermentation
Protocol: Fermentation process was carried out using ammonium sulphate (3-5 g/L), KH2PO4 (4-6 g/L), MgSO4.7H2O (0.5-1 g/L), CaCO3 (2.5-5 g/L), Glycerol (2-3 g/L), Corn steep solids (25-35 g/L), cellulose (25-40 g/L) and Tween-80 (1-2 ml/L) dissolved in distilled water. Novel Penicillium funiculosum MRJ-16 mutant strain developed in the laboratory was used for the study. […]
Cultivation of Penicillium funiculosum MRJ-16 mutant strain was conducted under conditions and media composition identical to example no. 1 along with inhibitors at different concentration.

Row | SMILES | Average FPA/ml (inhibitor 0.25% in media) [FPA/ml] | Average FPA/ml (inhibitor 0.5% in media) [FPA/ml]
1 | O=Cc1ccc(CO)o1 [HMF, hydroxyl methyl furfural] | 6.07 | 
2 | O=Cc1ccco1 [Furfural, furfural] | 6.83 | 
3 | CC(=O)O [Acetic acid, acetic acid] |  | 6.49
